Data on 1 molecule can be found in patent US12636313B2, “Nutraceutical or pharmaceutical composition comprising iron pyrophosphate for treating and/or preventing iron deficiency conditions or diseases” (NEILOS S.R.L., priority 2019, dated 2026).

Series [1] concerns subjects with advanced cancer and plasma iron levels below 60 μg/dL. As to conditions: 30 mg/day, 30-day treatment, 42 subjects with advanced cancer; cited from earlier work.
For series [2] the following is noted: after 120 minutes in sham gastric environment, 0.1 M HCl, 37° C., 75 rpm, six replicates. The procedure:
1 g of sample was weighed and introduced into the container of the dissolving apparatus containing 900 mL of 0.1 M HCl. The dissolution was performed for 2 h at 37° C. and 75 rpm. After dissolution, 1 mL of sample was diluted to 50 mL with 0.1 M HCl. The preparation was performed in six replicates for each sample.

For the molecule `O=P([O-])([O-])OP(=O)([O-])[O-].O=P([O-])([O-])OP(=O)([O-])[O-].O=P([O-])([O-])OP(=O)([O-])[O-].[Fe+3].[Fe+3].[Fe+3].[Fe+3]` [iron pyrophosphate as such, iron pyrophosphate], in series [1], the ferritinaemia level result is recorded as “enhanced”, the haemoglobinaemia level result is on record as “enhanced”, the side effects result is recorded as “without appearance of side effects” and the sideraemia level result is reported as “enhanced”. Also, the “amount of iron released” value in series [2] is 7.5 g per 100 g of formulation.
